# Reference: patent US20220226484A1, “THERAPEUTIC PEPTIDES” (COHBAR, INC., priority 2019, published 2022)
# Positions of bridges follow the written chain, without caps; N, C: chain ends. Primed or numbered codes have the meaning given here. Chains are numbered I, II in the order given. No end group written: not given here. PEG12′ = not defined here
# How the values were obtained:
# human PC-3 tumor cells = assay: Mouse PC-3 xenograft model of prostate cancer; format: in vivo; details: 5 mg/kg daily intraperitoneal
# Method: Male BALB/c nude mice, 6-7 weeks of age, 20±2 g were inoculated subcutaneously in the right lower flank with a single volume of 0.1 ml of cell suspension containing about 1×10^7 human PC-3 tumor cells. Animals were weighed and randomized into treatment groups when the mean tumor size was around 130 mm^3. Groups of 10 animals received daily injections of test article (5 mg/kg) by intraperitoneal administration. Tumor size was measured twice per week in 2 dimensions using a calipers and tumor volume calculated by standard methods. The study was concluded on day 21 post initial-dosing (day 0).
# human lung fibroblasts = assay: Fibroblast-to-myofibroblast transition assay, alpha smooth muscle actin expression; format: cell-based; details: 1.25 ng/ml TGF-β1, 72 hours
# From the text: The effect of the peptides on fibrosis can be assessed in vitro using a fibroblast-to-myofibroblast transition (FMT) assay and monitoring alpha smooth muscle actin ([…]SMA) produced by cultured cells such as healthy primary human lung fibroblast cells. Assay performed by Charles River Discovery Research Services UK Limited (Essex, UK). Transforming growth factor beta-1 (TGF-β1) stimulated alpha smooth muscle actin (αSMA) expression in human lung fibroblasts derived from three healthy donors was used to assess anti-fibrotic activity. Peptides were prepared as 10 mM stock in DMSO and tested in eight (8)-step concentration response curves using 0.5 Log M dilution steps with 10 μM as highest concentration (0.1% DMSO final). Transforming Growth Factor beta (TGF-β1) was used as a potent inducer of FMT as measured by increased αSMA expression. Isolated lung fibroblasts were seeded in 96-well or 384-well PureCol coated plates. Five days post-seeding, medium was refreshed, and peptides, reference compounds, and controls are added to the cells. After one hour, 1.25 ng/ml TGF-β1 was added to induce FMT. Expression of αSMA was measured 72 hours later by immunostaining, assessed by high content imaging on an IN Cell Analyzer 2200 (GE Healthcare) and quantified using an in-house developed algorithm with the IN Cell developer software (GE Healthcare). The output of the algorithm represents the staining intensity multiplied by the stained area (DxA levels). Co-staining of cell nuclei with DAPI was performed to quantify cell number, a measure of potential toxicity. The αSMA expression levels observed using 0.1% DMSO (negative control) were used to calculate percentage inhibition of αSMA by each peptide.
# [1] = system: RENCA cells (renal adenocarcinoma cell line); assay: Tumor growth in RENCA syngeneic mouse model; format: in vivo; details: 10 mg/kg daily intraperitoneal, female BALB/c mice, 10 per group
# Method: The effect of the peptides on tumor growth can be assessed by monitoring tumor volume in syngeneic mouse cancer models such as RENCA, a mouse tumor model using a renal adenocarcinoma cell line. RENCA cells were grown in culture. On Day 0, 1.0×10^6 cells in 100 μl PBS were implanted into the mammary fat pad of female BALB/c mice. […] Test peptides were administered daily at a dose of 10 mg/kg by intraperitoneal administration. Primary tumor volumes were determined by caliper measurements twice a week. The growth rate of each tumor was calculated as the percent of the mean tumor growth of tumors observed in the control vehicle-treated group, as determined on Day 20 of the study.
# [2] = system: bleomycin-induced lung fibrosis in male C57BL/6 mice; assay: Therapeutic mouse model of idiopathic pulmonary fibrosis (bleomycin); format: in vivo; details: peptide 5 mg/kg/day intraperitoneal, nintedanib 60 mg/kg/day PO
# From the text: The effect of the peptides on the progression of established lung fibrosis can be assessed by monitoring lung fibrosis, lung weight, inflammatory cells in bronchoalveolar lavage fluid (BALF), soluble collagen in BALF, and body weight change in a therapeutic mouse model of idiopathic pulmonary fibrosis. Lung fibrosis was induced in lungs of male C57BL/6 mice between the ages of 6 to 8 weeks by nasophayngeal administration of bleomycin (1.5 U/kg using bleomycin clinical formulation diluted in PBS). A control group of animals were administered saline by the nasopharyngeal route (no-bleomycin control group). After one week, bleomycin-treated animals were randomized to treatment groups (N=10 per group) by body weight and treated daily with vehicle control, nintedanib positive control (60 mg/kg/day PO) or peptide (5 mg/kg/day by intraperitoneal injection). After 14 days of treatment (Day 21), lungs were removed and weighed. The post-caval lobe was separated and snap frozen. The lungs were flushed with Hanks Buffer and bronchoalveolar lavage fluid (BALF) was harvested from each animal. Total BALF leukocyte were counted. Slides were prepared from the remaining BALF leukocytes, fixed and stained with May Geimsa stain and the differential counts were recorded manually. BALF was evaluated for soluble collagen using a Sircol assay. Lungs were fixed in 10% neutral buffered formalin (NBF) for histopathological analysis. Fibrosis was assessed by histopathological analysis of H&E stained mouse lungs using an Ashcroft scoring system.
# [3] = system: DSS-induced colitis in female C57BL/6NTac mice; assay: DSS-induced colitis mouse model of inflammatory bowel disease; format: in vivo; details: 3% DSS 8 days; peptides 10 mg/kg/day intraperitoneal; CsA 80 mg/kg/day oral; AUC over 8 days
# Method: The effect of the peptides on inflammatory disease can be assessed by monitoring fecal blood, stool consistency, and body weight loss in a DSS-induced colitis mouse model. Colitis was induced in female C57BL/6NTac mice (9-11 weeks old) by continuous ad libitum oral administration of dextran sodium sulfate (DSS) 3% in sterile drinking water for 8 days. Control (No DSS) mice received sterile water instead of DSS solution. Peptides were administered intraperitoneally once daily at 10 mg/kg/day for 8 days in combination with oral DSS. […] Daily assessments included body weight loss score, fecal blood score, stool consistency score, and composite disease activity index (DAI) score, based on the first three parameters combined. Scores recorded on each day over 8 days were used to calculate area under the curve (AUC) values for each endpoint in individual animals.
substance,measurement,setting,value
RVIRMCLGVGLLGDLAG [SEQ ID NO: 3],Mean Tumor Volume,"human PC-3 tumor cells; Time 0 Days, N = 10",131 mm^3
same,Mean Tumor Volume,human PC-3 tumor cells; Time 4 Days,136 mm^3
same,Mean Tumor Volume,human PC-3 tumor cells; Time 7 Days,203 mm^3
same,Mean Tumor Volume,human PC-3 tumor cells; Time 11 Days,270 mm^3
same,Mean Tumor Volume,human PC-3 tumor cells; Time 14 Days,400 mm^3
same,Mean Tumor Volume,human PC-3 tumor cells; Time 18 Days,596 mm^3
same,Mean Tumor Volume,human PC-3 tumor cells; Time 22 Days,806 mm^3
RVIRMCLGVGLLGDLAGK{PEG12} (chain 1 RVIRMCLGVGLLGDLAGK(PEG12′); chain 2 RVIRMCLGVGLLGDLAGK(PEG12′); disulfide I:6-II:6) [SEQ ID NO: 28],Mean Percent Inhibition of alpha-SMA Expression,human lung fibroblasts; peptide 0.00316 μM,6.25%
same,Mean Percent Inhibition of alpha-SMA Expression,human lung fibroblasts; peptide 0.01 μM,1.25%
same,Mean Percent Inhibition of alpha-SMA Expression,human lung fibroblasts; peptide 0.0316 μM,−5.63%
same,Mean Percent Inhibition of alpha-SMA Expression,human lung fibroblasts; peptide 0.1 μM,−5.63%
same,Mean Percent Inhibition of alpha-SMA Expression,human lung fibroblasts; peptide 0.316 μM,4.06%
same,Mean Percent Inhibition of alpha-SMA Expression,human lung fibroblasts; peptide 1 μM,28.1%
same,Mean Percent Inhibition of alpha-SMA Expression,human lung fibroblasts; peptide 3.16 μM,81.6%
same,Mean Percent Inhibition of alpha-SMA Expression,human lung fibroblasts; peptide 10 μM,88.1%
same,Mean (SEM) Percent of Control Group Tumor Growth at Day 20,[1],57.3 (14.4) Percent
same,Mean (SEM) Leukocyte Count in BALF (Percent of Bleomycin Control),"[2]; Day 21, 14 days of treatment",72.2 (5.96) Percent
same,Mean (SEM) Lung Weight (Percent of Bleomycin Control),"[2]; Day 21, 14 days of treatment",73.8 (3.13) Percent
same,Mean (SEM) Percent Body Weight Change from Baseline,"[2]; Day 21, 14 days of treatment",2.71 (1.48) Percent
same,Mean (SEM) Collagen Content in BALF (Percent of Bleomycin Control),"[2]; Sircol assay, Day 21",49.6 (6.48) Percent
same,Mean (SEM) Ashcroft Score (Percent of Bleomycin Control),"[2]; histopathology, Day 21",80.73 (7.24) Percent
same,Mean (SEM) Body Weight Loss Score AUC,[3],1.70 (0.63)
same,Mean (SEM) Composite Disease Activity Index (DAI) Score AUC,[3],16.6 (1.25)
same,Mean (SEM) Fecal Blood Score AUC,[3],10.3 (0.82)
same,Mean (SEM) Stool Consistency Score AUC,[3],4.60 (0.74)
